Values quoted from earlier work as cited in patent US20140256762A1, “ARTEMISININ-BASED COMBINATION THERAPY FOR TREATING VIRAL MEDIATED DISEASE” (priority 2012, published 2014).

Tests used:
[1] = background statement
[2] = background statement; remark: listed apart in the source

Row | SMILES | Genotoxic activity [1] | Toxicity ([1]; generally considered) | Solubility [2]
1 | COc1ccc2cc3[n+](cc2c1OC)CCc1cc2c(cc1-3)OCO2 [Berberine, (5,6-Dihydro-9,10-dimethoxybenzo[g]-1,3-benzodioxolo[5,6-a]quinolizinium)] | no genotoxic activity | non-toxic | 
2 | CO[C@H]1O[C@@H]2O[C@@]3(C)CC[C@H]4[C@H](C)CC[C@@H]([C@H]1C)[C@@]24OO3 [artemether, (+)-(3-alpha,5a-beta,6-beta,8a-beta, 9-alpha,12-beta,12aR)-decahydro-10-methoxy-3,6,9-trimethyl-3,12-epoxy-12H-pyrano(4,3-j)-1,2-benzodioxepin] |  |  | lipid-soluble
3 | C[C@@H]1CC[C@H]2[C@@H](C)C(=O)O[C@@H]3O[C@@]4(C)CC[C@@H]1[C@]32OO4 [artemisinin] |  |  | sparingly soluble in either water or oils
4 | C[C@H]1[C@H](OC(=O)CCC(=O)O)O[C@@H]2O[C@@]3(C)CC[C@H]4[C@H](C)CC[C@@H]1[C@@]24OO3 [artesunate, 3R,5aS,6R,8aS,9R,10S,12R,12aR)-Decahydro-3,6,9-trimethyl-3,12-epoxy-12H-pyrano(4,3-j)-1,2-benzodioxepin-10-ol hydrogen succinate] |  |  | water-soluble
